In patent publication US20240279220A1, “INDOLE COMPOUNDS AND METHODS OF USE” (Genzyme Corporation, priority 2021, published 2024):

These molecules were tested on NBD1/3D (assay: Aggregation analysis using differential static light scattering (DSLS), NBD1 thermal stability). Details: ΔTagg versus DMSO control; compound at 100 μM.
Type: binding, Human
Procedure, shortened: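 Thermal stabilisation reported as ΔTagg, i.e. aggregation temperature relative to averaged DMSO wells. Tagg came from the inflection of differential static light scattering imaged 25–70 °C while NBD1 (0.2 mg/ml, Tris pH 7.6 buffer containing ATP, MgCl2, DTT, glycerol) was ramped 1 °C/min.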

SMILES | DSLS NBD1/3D Human Stability delta-T (° C.) @ 100 (μM)
CS(=O)(=O)c1c(Oc2cccc(-c3ncn(Cc4cccc(CCC(=O)O)c4)n3)c2)c(F)cc2[nH]ccc12 [Example 32, 3-(3-((3-(3-((6-Fluoro-4-(methylsulfonyl)-1H-indol-5-yl)oxy)phenyl)-1H-1,2,4-triazol-1-yl)methyl)phenyl)propanoic acid] | B (B: 5-10° C.)
Cc1c(Oc2ccc(F)c(-c3nnc(Cc4ccc5[nH]c(C(=O)O)cc5c4)[nH]3)c2)c(F)cc2[nH]ccc12 [Example 246, 5-((5-(2-fluoro-5-((6-fluoro-4-methyl-1H-indol-5-yl)oxy)phenyl)-4H-1,2,4-triazol-3-yl)methyl)-1H-indole-2-carboxylic acid] | B (B: 5-10° C.)
O=C(O)CCc1cccc(Cc2cnc(-c3cccc(Oc4c(F)cc5[nH]ccc5c4-c4ccn[nH]4)c3)[nH]2)c1 [Example 271, 3-(3-((2-(3-((6-Fluoro-4-(1H-pyrazol-5-yl)-1H-indol-5-yl)oxy)phenyl)-1H-imidazol-4-yl)methyl)phenyl)propanoic acid] | B (B: 5-10° C.)
CC(O)(c1cccc(CCC(=O)O)c1)c1cnc(-c2cc(Oc3c(F)cc4[nH]ccc4c3P(C)(C)=O)ccc2F)[nH]1 (stereo not shown) [Example 96, 3-(3-(1-(2-(5-((4-(Dimethylphosphoryl)-6-fluoro-1H-indol-5-yl)oxy)-2-fluorophenyl)-1H-imidazol-5-yl)-1-hydroxyethyl)phenyl)propanoic acid] | B (B: 5-10° C.)
CC(O)(c1cccc(CCC(=O)O)c1)c1cnc(-c2cc(Oc3c(F)cc4[nH]ccc4c3C(F)F)ccc2F)[nH]1 (stereo not shown) [Example 191, 3-(3-(1-(2-(5-((4-(difluoromethyl)-6-fluoro-1H-indol-5-yl)oxy)-2-fluorophenyl)-1H-imidazol-5-yl)-1-hydroxyethyl)phenyl) propanoic acid] | B (B: 5-10° C.)
O=C(O)CCc1cc(F)cc(Cc2cnc(-c3cc(Oc4c(F)cc5[nH]ccc5c4CC(F)(F)F)ccc3F)[nH]2)c1 [Example 113, 3-(3-fluoro-5-((2-(2-fluoro-5-((6-fluoro-4-(2,2,2-trifluoroethyl)-1H-indol-5-yl)oxy)phenyl)-1H-imidazol-5-yl)methyl)phenyl)propanoic acid] | B (B: 5-10° C.)
CS(=O)(=O)c1c(Oc2ccc(F)c(-c3ncc(Cc4ccc5c(c4)CC(C(=O)O)C5)[nH]3)c2)c(F)cc2[nH]ccc12 (single isomer, unassigned) [Example 83A, 5-((2-(2-Fluoro-5-((6-fluoro-4-(methylsulfonyl)-1H-indol-5-yl)oxy)phenyl)-1H-imidazol-5-yl)methyl)-2,3-dihydro-1H-indene-2-carboxylic acid] | B (B: 5-10° C.)
CC(O)(c1cccc(CCC(=O)O)c1)c1cnc(-c2cc(Oc3cc(F)c4[nH]ccc4c3)ccc2F)[nH]1 (stereo not shown) [Example 196, 3-(3-(1-(2-(2-fluoro-5-((7-fluoro-1H-indol-5-yl)oxy)phenyl)-1H-imidazol-5-yl)-1-hydroxyethyl)phenyl) propanoic acid] | B (B: 5-10° C.)
CCC(O)(c1cccc(CCC(=O)O)c1)c1cnc(-c2cc(Oc3c(F)cc4[nH]ccc4c3C)ccc2F)[nH]1 (stereo not shown) [Example 223, 3-(3-(1-(2-(2-fluoro-5-((6-fluoro-4-methyl-1H-indol-5-yl)oxy)phenyl)-1H-imidazol-5-yl)-1-hydroxypropyl)phenyl) propanoic acid] | B (B: 5-10° C.)
O=C(O)CCc1cccc(C2(c3cnc(-c4cc(Oc5c(F)cc6[nH]ccc6c5F)ccc4F)[nH]3)CC2)c1 [Example 143, 3-(3-(1-(2-(5-((4,6-difluoro-1H-indol-5-yl)oxy)-2-fluorophenyl)-1H-imidazol-5-yl)cyclopropyl)phenyl)propanoic acid] | B (B: 5-10° C.)
COP(=O)(Cc1cccc(Cn2ccc(-c3cccc(Oc4ccc5[nH]ccc5c4CO)c3)n2)c1)OC [Example 12, dimethyl (3-((3-(3-((4-(hydroxymethyl)-1H-indol-5-yl)oxy)phenyl)-1H-pyrazol-1-yl)methyl)benzyl)phosphonate] | C (C: ≤5° C.)
CCCCC(O)(c1cccc(CCC(=O)O)c1)c1c[nH]c(-c2cc(Oc3c(F)cc4[nH]ccc4c3C)ccc2F)n1 (stereo not shown) [Example 226, 3-(3-(1-(2-(2-fluoro-5-((6-fluoro-4-methyl-1H-indol-5-yl)oxy)phenyl)-1H-imidazol-4-yl)-1-hydroxypentyl)phenyl) propanoic acid] | B (B: 5-10° C.)
CC(O)(c1cccc(CCC(=O)O)c1)c1cnc(-c2cc(Oc3cc(F)c4[nH]ccc4c3F)ccc2F)[nH]1 (stereo not shown) [Example 197, 3-(3-(1-(2-(5-((4,7-difluoro-1H-indol-5-yl)oxy)-2-fluorophenyl)-1H-imidazol-5-yl)-1-hydroxyethyl)phenyl) propanoic acid] | B (B: 5-10° C.)
O=C(O)CCc1cccc(C(O)c2c[nH]c(-c3cc(Oc4c(F)cc5[nH]ccc5c4F)ccc3F)n2)c1 (stereo not shown) [Example 177, 3-(3-((2-(5-((4,6-difluoro-1H-indol-5-yl)oxy)-2-fluorophenyl)-1H-imidazol-4-yl)(hydroxy)methyl)phenyl)propanoic acid] | A (A: T ≥ 10° C.)
CS(=O)(=O)c1c(Oc2ccc(F)c(-c3nc(Cc4cccc(CCC(=O)O)c4)cs3)c2)c(F)cc2[nH]ccc12 [Example 93, 3-(3-((2-(2-fluoro-5-((6-fluoro-4-(methylsulfonyl)-1H-indol-5-yl)oxy)phenyl)thiazol-4-yl)methyl)phenyl)propanoic acid] | B (B: 5-10° C.)
Cc1c(Oc2ccc(F)c(-c3nc(Cc4cccc(CCC(=O)O)c4F)c[nH]3)c2)c(F)c(F)c2[nH]ccc12 [Example 112, 3-(3-((2-(5-((6,7-difluoro-4-methyl-1H-indol-5-yl)oxy)-2-fluorophenyl)-1H-imidazol-4-yl)methyl)-2-fluorophenyl)propanoic acid] | B (B: 5-10° C.)
CC(O)(c1cccc(CC2SC(=O)NC2=O)c1)c1cnc(-c2cccc(Oc3c(F)cc4[nH]ccc4c3F)c2)[nH]1 (stereo not shown) [Example 211, 5-(3-(1-(2-(3-((4,6-Difluoro-1H-indol-5-yl)oxy)phenyl)-1H-imidazol-5-yl)-1-hydroxyethyl)benzyl)thiazolidine-2,4-dione] | B (B: 5-10° C.)
O=C(O)CCc1cccc(Cc2nnc(-c3cc(Oc4c(F)cc5[nH]ccc5c4Cl)ccc3F)[nH]2)c1 [Example 239, 3-(3-((5-(5-((4-chloro-6-fluoro-1H-indol-5-yl)oxy)-2-fluorophenyl)-4H-1,2,4-triazol-3-yl)methyl)phenyl) propanoic acid] | C (C: ≤5° C.)
CC(C)OCCOCCC(c1cnc(-c2cc(Oc3c(F)cc4[nH]ccc4c3F)ccc2F)[nH]1)c1cccc(CCC(=O)O)c1F (single isomer, unassigned) [Example 130A, 3-(3-(1-(2-(5-((4,6-difluoro-1H-indol-5-yl)oxy)-2-fluorophenyl)-1H-imidazol-5-yl)-3-(2-isopropoxyethoxy)propyl)-2-fluorophenyl)propanoic acid] | C (C: ≤5° C.)
